Laboratory results as given in patent US20240409585A1, “MACROCYCLIC IMMUNOMODULATORS” (priority 2021, published 2024).
Bridge positions count the residues as written; N and C are the ends. Square brackets hold non-standard residues; d marks the D form. Peptide text beside a SMILES is read from it. * marks the point of attachment. ξ: configuration not given here. Phe(4-COOH) = N[C@@H](Cc1ccc(C(=O)O)cc1)C(=O)O; Bip = N[C@@H](Cc1ccc(-c2ccccc2)cc1)C(=O)O; Phe(3-Cl) = N[C@@H](Cc1cccc(Cl)c1)C(=O)O; Phe(3-Me) = Cc1cccc(C[C@H](N)C(=O)O)c1; Phe(4-F) = N[C@@H](Cc1ccc(F)cc1)C(=O)O; Val(3-OH) = CC(C)(O)[C@H](N)C(=O)O; hPhe = N[C@@H](CCc1ccccc1)C(=O)O; 3Pal = N[C@@H](Cc1cccnc1)C(=O)O; 4Pal = N[C@@H](Cc1ccncc1)C(=O)O; Cha = N[C@@H](CC1CCCCC1)C(=O)O; Cit = NC(=O)NCCC[C@H](N)C(=O)O; Ile(3ξ) = CCC(C)[C@H](N)C(=O)O; dNle = CCCC[C@@H](N)C(=O)O; Carboxymethyl = O=C(O)C*; NMeA = CN[C@@H](C)C(=O)O; Dab = NCC[C@H](N)C(=O)O; Dap = NC[C@H](N)C(=O)O

The compounds below were run against T1, PE-labeled human PD-L1-Ig binding to Jurkat cell line over-expressing human PD-1 (Jurkat-PD-1) (Homo sapiens, UniProt Q15116) (assay: Jurkat-PD-1 Cell Binding High-Content Screening Assay (CBA): Method 1). Settings: Jurkat HPDL1 PD1 IC50 (Method 1), cells printed in nM, Jurkat-hPD-1 cells, PE-labeled PD-L1-Ig 20 nM final; unit nM.
T1 construct: expressed in transfected cells; host or cells: Jurkat
T1 sequence (Q15116 25-288): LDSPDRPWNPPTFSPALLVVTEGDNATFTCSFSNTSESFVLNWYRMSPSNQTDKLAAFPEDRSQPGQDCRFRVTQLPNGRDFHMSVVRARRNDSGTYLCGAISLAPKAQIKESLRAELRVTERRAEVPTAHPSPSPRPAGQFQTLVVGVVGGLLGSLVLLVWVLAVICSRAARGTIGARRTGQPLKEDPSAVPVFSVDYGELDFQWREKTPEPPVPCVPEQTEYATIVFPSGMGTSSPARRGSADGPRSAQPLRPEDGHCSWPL

Compound	IC50 [nM]
CC(C)C[C@@H]1NC(=O)[C@H](CCN)NC(=O)[C@@H](CC(C)C)NC(=O)[C@H](C)N(C)C(=O)[C@H](C(C)C)NC(=O)[C@H](Cc2ccc(-c3ccccc3)cc2)NC(=O)[C@H](C(C)C)NC(=O)[C@H](Cc2c[nH]c3ccccc23)NC(=O)[C@H](CC(=O)O)NC(=O)[C@H](Cc2ccc(C(=O)O)cc2)NC(=O)[C@H](CN)NC(=O)CSC[C@@H](C(=O)N[C@@H](C)C(N)=O)NC(=O)[C@H]([C@@H](C)O)NC(=O)[C@H](C(C)C)NC1=O [Compound 1416] ({CH2CO}-[Dap][Phe(4-COOH)]DWV[Bip]V[NMeA][dL][Dab]LVTCA-NH2; thioether N-14)	4.7

Same assay, conditions: Jurkat-hPD-1 cells, PE-labeled PD-L1-Ig 20 nM final; read-out: Jurkat HPDL1 PD1 IC50 (uM) (Method 1)

IC50 [nM]	Compound
170	CC(C)C[C@@H]1NC(=O)[C@H](CCN)NC(=O)[C@@H](CC(C)C)NC(=O)[C@H](C)N(C)C(=O)[C@H](CC(=O)O)NC(=O)[C@H](Cc2ccc(-c3ccccc3)cc2)NC(=O)[C@H](C(C)C)NC(=O)[C@H](Cc2c[nH]c3ccccc23)NC(=O)[C@H](CC(=O)O)NC(=O)[C@H](Cc2ccc(O)cc2)NC(=O)[C@H](CC(N)=O)NC(=O)CSC[C@@H](C(=O)N[C@@H](C)C(N)=O)NC(=O)[C@H]([C@@H](C)O)NC(=O)[C@H](C(C)C)NC1=O [Compound 1260] ({CH2CO}-NYDWV[Bip]D[NMeA][dL][Dab]LVTCA-NH2; thioether N-14)
180	CC[C@H](C)[C@@H]1NC(=O)[C@H](Cc2ccc(-c3ccccc3)cc2)NC(=O)[C@H](C(C)(C)O)NC(=O)[C@H](Cc2cccc(C)c2)NC(=O)[C@H](CC(=O)O)NC(=O)[C@H](Cc2ccc(O)cc2)NC(=O)[C@H](CC(N)=O)NC(=O)CSC[C@@H](C(=O)N[C@H](C)C(N)=O)NC(=O)[C@H](CCC(=O)O)NC(=O)[C@H](C(C)(C)O)NC(=O)[C@H](CC2CCCCC2)NC(=O)[C@H](CCN)NC(=O)[C@@H](CC(C)C)NC(=O)[C@H](C)N(C)C1=O [Compound 1700] ({CH2CO}-NYD[Phe(3-Me)][Val(3-OH)][Bip]I[NMeA][dL][Dab][Cha][Val(3-OH)]EC[dA]-NH2; thioether N-14)
10	Cc1cccc(C[C@@H]2NC(=O)[C@H](CC(=O)O)NC(=O)[C@H](Cc3ccc(OCC(=O)O)cc3)NC(=O)[C@H](CN)NC(=O)CSC[C@@H](C(=O)N[C@@H](C)C(N)=O)NC(=O)[C@H]([C@@H](C)O)NC(=O)[C@H](C(C)C)NC(=O)[C@H](CC(C)C)NC(=O)[C@H](CCN)NC(=O)[C@@H](CC(C)C)NC(=O)[C@H](C)N(C)C(=O)[C@H](C(C)C)NC(=O)[C@H](Cc3ccc(-c4ccccc4)cc3)NC(=O)[C@H](C(C)C)NC2=O)c1 [Compound 1418] ({CH2CO}-[Dap]Y(Carboxymethyl)D[Phe(3-Me)]V[Bip]V[NMeA][dL][Dab]LVTCA-NH2; thioether N-14)
150	Cc1cccc(C[C@@H]2NC(=O)[C@H](CC(=O)O)NC(=O)[C@H](Cc3ccc(O)cc3)NC(=O)[C@H](CC(N)=O)NC(=O)CSC[C@@H](C(=O)N[C@H](C)C(N)=O)NC(=O)[C@H]([C@@H](C)O)NC(=O)[C@H](C(C)C)NC(=O)[C@H](CC3CCCCC3)NC(=O)[C@H](CCN)NC(=O)[C@@H](CC(C)C)NC(=O)[C@H](C)N(C)C(=O)[C@H](CCCNC(N)=O)NC(=O)[C@H](Cc3ccc(-c4ccccc4)cc3)NC(=O)[C@H](C(C)(C)O)NC2=O)c1 [Compound 1704] ({CH2CO}-NYD[Phe(3-Me)][Val(3-OH)][Bip][Cit][NMeA][dL][Dab][Cha]VTC[dA]-NH2; thioether N-14)
190	CC(C)C[C@@H]1NC(=O)[C@H](CCCNC(=N)N)NC(=O)[C@@H](Cc2ccccc2)NC(=O)[C@H](C)N(C)C(=O)[C@H](CCCNC(=N)N)NC(=O)[C@H](Cc2ccc(-c3ccccc3)cc2)NC(=O)[C@H](C(C)C)NC(=O)[C@H](Cc2c[nH]c3ccccc23)NC(=O)[C@H](CC(=O)O)NC(=O)[C@H](Cc2ccc(O)cc2)NC(=O)[C@H](CC(N)=O)NC(=O)CSC[C@@H](C(=O)N[C@@H](C)C(N)=O)NC(=O)[C@H]([C@@H](C)O)NC(=O)[C@H](C(C)C)NC1=O [Compound 1153] ({CH2CO}-NYDWV[Bip]R[NMeA][dF]RLVTCA-NH2; thioether N-14)
40	CC(C)C[C@@H]1NC(=O)[C@H](CCN)NC(=O)[C@@H](CC(C)C)NC(=O)[C@H](C)N(C)C(=O)[C@H](CCCNC(=N)N)NC(=O)[C@H](Cc2ccc(-c3ccccc3)cc2)NC(=O)[C@H](C(C)C)NC(=O)[C@H](Cc2cccc(Cl)c2)NC(=O)[C@H](CC(=O)O)NC(=O)[C@H](Cc2ccc(C(=O)O)cc2)NC(=O)[C@H](CN)NC(=O)CSC[C@@H](C(=O)N[C@@H](C)C(N)=O)NC(=O)[C@H]([C@@H](C)O)NC(=O)[C@H](C(C)C)NC1=O [Compound 1459] ({CH2CO}-[Dap][Phe(4-COOH)]D[Phe(3-Cl)]V[Bip]R[NMeA][dL][Dab]LVTCA-NH2; thioether N-14)

Further lines, the compound ahead of its results:

Compound	IC50 [nM]
CC(C)C[C@@H]1NC(=O)[C@H](CCN)NC(=O)[C@@H](CC(C)C)NC(=O)[C@H](C)N(C)C(=O)[C@H](CCCNC(=N)N)NC(=O)[C@H](Cc2ccc(-c3ccccc3)cc2)NC(=O)[C@H](C(C)C)NC(=O)[C@H](Cc2c[nH]c3ccccc23)NC(=O)[C@H](CC(=O)O)NC(=O)[C@H](CCc2ccccc2)NC(=O)[C@H](CC(N)=O)NC(=O)CSC[C@@H](C(=O)N[C@@H](C)C(N)=O)NC(=O)[C@H]([C@@H](C)O)NC(=O)[C@H](C(C)C)NC1=O [Compound 1353] ({CH2CO}-N[hPhe]DWV[Bip]R[NMeA][dL][Dab]LVTCA-NH2; thioether N-14)	30
Cc1cccc(C[C@@H]2NC(=O)[C@H](CC(=O)O)NC(=O)[C@H](Cc3ccc(OCC(=O)O)cc3)NC(=O)[C@H](Cc3ccc(F)cc3)NC(=O)CSC[C@@H](C(=O)N[C@@H](CCN)C(N)=O)NC(=O)[C@H](CCC(=O)O)NC(=O)[C@H](C(C)(C)O)NC(=O)[C@H](CC3CCCCC3)NC(=O)[C@H](CCN)NC(=O)[C@@H](CC(C)C)NC(=O)[C@H](C)N(C)C(=O)[C@H](Cc3ccc(OCC(=O)O)cc3)NC(=O)[C@H](Cc3ccc(-c4ccccc4)cc3)NC(=O)[C@H](Cc3ccc(OCC(=O)O)cc3)NC2=O)c1 [Compound 2200] ({CH2CO}-[Phe(4-F)]Y(Carboxymethyl)D[Phe(3-Me)]Y(Carboxymethyl)[Bip]Y(Carboxymethyl)[NMeA][dL][Dab][Cha][Val(3-OH)]EC[Dab]-NH2; thioether N-14)	10
CC(C)C[C@@H]1NC(=O)[C@H](CCCNC(=N)N)NC(=O)[C@@H](Cc2ccccc2)NC(=O)[C@H](C)N(C)C(=O)[C@H](CCCNC(=N)N)NC(=O)[C@H](Cc2ccc(-c3ccccc3)cc2)NC(=O)[C@H](C(C)C)NC(=O)[C@H](Cc2c[nH]c3ccccc23)NC(=O)[C@H](CC(=O)O)NC(=O)[C@H](Cc2ccncc2)NC(=O)[C@H](CC(N)=O)NC(=O)CSC[C@@H](C(=O)N[C@@H](C)C(N)=O)NC(=O)[C@H]([C@@H](C)O)NC(=O)[C@H](C(C)C)NC1=O [Compound 1162] ({CH2CO}-N[4Pal]DWV[Bip]R[NMeA][dF]RLVTCA-NH2; thioether N-14)	220
CCC(C)[C@@H]1NC(=O)[C@H](Cc2ccc(-c3ccccc3)cc2)NC(=O)[C@H](CC(C)C)NC(=O)[C@H](Cc2c[nH]c3ccccc23)NC(=O)[C@H](CC(=O)O)NC(=O)[C@H](Cc2ccc(C(=O)O)cc2)NC(=O)[C@H](Cc2ccc(OCC(=O)O)cc2)NC(=O)CSC[C@@H](C(=O)N[C@@H](CC(N)=O)C(N)=O)NC(=O)[C@H](CCC(N)=O)NC(=O)[C@H](C(C)C)NC(=O)[C@H](CC2CCCCC2)NC(=O)[C@H](CCN)NC(=O)[C@@H](CC(C)C)NC(=O)[C@H](C)N(C)C1=O (stereo partly drawn) [Compound 1925] ({CH2CO}-Y(Carboxymethyl)[Phe(4-COOH)]DWL[Bip][Ile(3ξ)][NMeA][dL][Dab][Cha]VQCN-NH2; thioether N-14)	30
CCCC[C@H]1NC(=O)[C@H](C)N(C)C(=O)[C@H](CCCNC(=N)N)NC(=O)[C@H](Cc2ccc(-c3ccccc3)cc2)NC(=O)[C@H](C(C)C)NC(=O)[C@H](Cc2c[nH]c3ccccc23)NC(=O)[C@H](CC(=O)O)NC(=O)[C@H](Cc2ccc(O)cc2)NC(=O)[C@H](Cc2ccccc2)NC(=O)CSC[C@@H](C(=O)N[C@@H](C)C(N)=O)NC(=O)[C@H]([C@@H](C)O)NC(=O)[C@H](C(C)C)NC(=O)[C@H](CC(C)C)NC(=O)[C@H](CCCNC(=N)N)NC1=O [Compound 1063] ({CH2CO}-FYDWV[Bip]R[NMeA][dNle]RLVTCA-NH2; thioether N-14)	60
CC[C@H](C)[C@@H]1NC(=O)[C@H](Cc2ccc(-c3ccccc3)cc2)NC(=O)[C@H](C(C)C)NC(=O)[C@H](Cc2c[nH]c3ccccc23)NC(=O)[C@H](CC(=O)O)NC(=O)[C@H](Cc2ccc(O)cc2)NC(=O)[C@H](CN)NC(=O)CSC[C@@H](C(=O)N[C@@H](C)C(N)=O)NC(=O)[C@H]([C@@H](C)O)NC(=O)[C@H](C(C)C)NC(=O)[C@H](CC(C)C)NC(=O)[C@H](CCN)NC(=O)[C@@H](CC(C)C)NC(=O)[C@H](C)N(C)C1=O [Compound 1414] ({CH2CO}-[Dap]YDWV[Bip]I[NMeA][dL][Dab]LVTCA-NH2; thioether N-14)	100
CC(C)C[C@@H]1NC(=O)[C@H](CCCCN)NC(=O)[C@@H](CC(C)C)NC(=O)[C@H](C)N(C)C(=O)[C@H](Cc2cnc[nH]2)NC(=O)[C@H](Cc2ccc(-c3ccccc3)cc2)NC(=O)[C@H](C(C)C)NC(=O)[C@H](Cc2c[nH]c3ccccc23)NC(=O)[C@H](CC(=O)O)NC(=O)[C@H](Cc2ccc(O)cc2)NC(=O)[C@H](CC(N)=O)NC(=O)CSC[C@@H](C(=O)NCC(N)=O)NC(=O)[C@H](CO)NC(=O)[C@H](C(C)C)NC1=O [Compound 1483] ({CH2CO}-NYDWV[Bip]H[NMeA][dL]KLVSCG-NH2; thioether N-14)	60
CC(C)C[C@@H]1NC(=O)[C@H](CCN)NC(=O)[C@@H](CC(C)C)NC(=O)[C@H](C)N(C)C(=O)[C@H](CCCNC(N)=O)NC(=O)[C@H](Cc2ccc(-c3ccccc3)cc2)NC(=O)[C@H](C(C)C)NC(=O)[C@H](Cc2c[nH]c3ccccc23)NC(=O)[C@H](CC(=O)O)NC(=O)[C@H](Cc2ccncc2)NC(=O)[C@H](Cc2cccnc2)NC(=O)CSC[C@@H](C(=O)N[C@@H](C)C(N)=O)NC(=O)[C@H]([C@@H](C)O)NC(=O)[C@H](C(C)C)NC1=O [Compound 1333] ({CH2CO}-[3Pal][4Pal]DWV[Bip][Cit][NMeA][dL][Dab]LVTCA-NH2; thioether N-14)	20
